Assay results published in patent publication US8637484B2, “Modulation of growth hormone receptor expression and insulin-like growth factor expression” (Antisense Therapeutic Limited, priority 2003, dated 2014).
In the oligonucleotide strings, read from the 5' end, every base follows the letter of its sugar. An asterisk marks phosphorothioate; unmarked linkages are phosphodiester. Other units and linkages are bracketed, terminal groups are in braces. A string of capitals states the bases alone. e = 2'-O-(2-methoxyethyl) (MOE); [5mC] = 5-methylcytosine; d = 2'-deoxy (DNA)

Tested on: serum insulin-like growth factor-I
Experiment: Serum IGF-I by radioimmunoassay, 1 week pilot study in Balb/C(a) mice
Type: in vivo, mouse
Details: for % IGF-I reduction: 30 mg/kg once every 2 days, serum IGF-I at day 7 compared to saline control at day 7
Protocol: Forty male Balb/C(a) mice weighing 9 to 10 g were placed into cages, 4 animals per cage, and allowed to assimilate into their environment with new littermates ˜1 week prior (Day −7) to the commencement of 1 week study. Mice of this age would be at their maximum growth rate. Their body weights were measured and recorded every second day during this period. When mice weighed 11 g (day −2), a blood sample was collected under anesthesia as described below, and a serum IGF-I assay was performed to determine pre-treatment values and to aid in the assigning of mice to treatment groups in order to reduce animal variability. To obtain the blood sample, the animals were anaesthetized with pentobarbital (50 mg/kg i.p.) and non-fasting blood samples collected exactly 5 minutes later from the retrobulbar plexus through heparinized capillary tubes under light ether anesthesia. The 40 animals were placed into five groups with each group having a similar weight average and similar IGF-I average concentration for the trial.
Animals (n=8/group) were designated to the following five treatment groups:
Saline, antisense, mismatch control and octreotide samples were prepared, and coded for blinding. Animals were given a subcutaneous dose of saline every second day, and mismatch control or antisense with administration on days 0, 2, 4, 6. Animals were given twice daily doses of 25 μg octreotide. Animals were housed 4 per cage, for the duration of one week. They had access to a pre-determined quantity of standard mouse food and water at all times throughout the experiment. They were housed in a quiet, temperature- and humidity-maintained environment for the entirety of the study. At day 0 and before treatment on each day or second day, the animals had their body weight and food intake measured, enabling the correct dose of agent to be administered. The animals were monitored closely for any changes in fur, skin, eye, locomotion or other changes in behavior. No problems were observed. Every second day from day −7 to day 7 body weight and food intake were measured.
On day 7, one day after the last dose of antisense, and/or after the last octreotide dose, the animals were anaesthetized with pentobarbital (50 mg/kg i.p.) and non-fasting blood samples collected exactly 5 minutes later from the retrobulbar plexus through heparinized capillary tubes under light ether anesthesia (as on day −7 and 0).
At day −2 and day 7, serum IGF-I measurement was done by radioimmunoassay. Serum IGF-I level is the most widely used measure of growth hormone biological activity in human therapy. It is used to measure the efficacy of growth hormone antagonist treatments like Trovert, which block cells' responsiveness to excess growth hormone, and dopamine agonists and octreotide somatostatin […] drugs that block growth hormone secretion from the pituitary.

With “acaaagatccatacctgaga (eA*e[5mC]*eA*eA*eA*dG*dA*dT*d[5mC]*d[5mC]*dA*dT*dA*d[5mC]*d[5mC]*eT*eG*eA*eG*eA; antisense) [ISIS 227446]” the “effect on serum IGF-I” value (3 mg/kg once every 2 days, day 7) was “no effect”, the “IGF-I (ng/ml) Day 7” value (3 mg/kg sc once every 2 days (days 0, 2, 4, 6)) was 129.63 ± 33.76 ng/mL and the “% IGF-I reduction” value was 45%. The “% IGF-I reduction” value (listed as ASO) was 44.51%, the “serum IGF-1, % of the control (saline) group” value (30 mg/kg sc every second day for one week) was 55% and the “IGF-I (ng/ml) Day 7” value (30 mg/kg sc once every 2 days (days 0, 2, 4, 6)) was 56.95 ± 10.34 ng/mL. The “IGF-I (ng/ml) Day −2” value (pre-treatment value of the group given 3 mg/kg sc once every 2 days) was 216.23 ± 78.14 ng/mL and the “IGF-I (ng/ml) Day −2” value (pre-treatment value of the group given 30 mg/kg sc once every 2 days) was 181.84 ± 71.32 ng/mL.
